Measured values published in patent publication US20140178305A1, “IDENTIFICATION AND USE OF ANXIOLYTIC COMPOUNDS” (CALIFORNIA INSTITUTE OF TECHNOLOGY, priority 2012, published 2014).
“Also recorded” adds a separate entry of the source.

Experiments:
[1] = test system: MRGPRB4+ spinal afferent fibres co-expressing GCaMP3.0 and hM3DREADD; test: Calcium imaging after spinal application of CNO in MrgprB4+ fibres expressing hM3DREADD and GCaMP3.0; type: in vivo, mouse; details: CNO 1.5 mM, mice co-injected with GCaMP3.0 and hM3DREADD viruses
Method: KCl, final concentration (60 mM), α,β-methyl ATP (5 mM) and CNO (1.5 mM) were delivered manually to the imaging bath using a pipetman pipette.
The stimuli used to activate MRGPRB41 fibres were designed to mimic stroking and allogrooming stimuli. […] To determine whether direct activation of MRGPRB41 neurons could similarly promote a preference for the location in which this stimulation occurred, a pharmacogenetic strategy was used. Juvenile (1-month-old) Mrgprb4-cre male mice were injected neonatally with an AAV encoding the hM3-(Gq-coupled)DREADD19, the activation of which by clozapine-N-oxide (CNO) causes membrane depolarization (FIG. 4a).
Spinal application of CNO was employed to image activation of hM3DREADD and GCaMP3.0-expressing MrgprB4^+ fibers. The low probability of double-infection of individual MrgprB4^+ neurons with both the GCaMP3.0 and hM3DREADD Cre-dependent viruses (˜30%), taken together with the difficulty of identifying sites for focal peripheral injection corresponding to specific MrgprB4^+ central afferent fibers visualized in the spinal cord, precluded peripheral delivery of CNO for this assay.

[2] = test system: MRGPRB4+ fibres; test: Two-photon in vivo calcium imaging (GCaMP3.0) of central afferent fibres through a spinal cord laminectomy, chemical stimuli; set-up: species or system mouse; details: CNO, mice injected only with GCaMP3.0 viruses (no hM3DREADD)
Method: Mice expressing reporters and/or Cre recombinase targeted to the MrgprB4 locus were generated by homologous recombination in embryonic stem cells, according to standard procedures. Heterozygous neonates from MrgprD-Cre and MrgprB4-Cre mice were injected intraperitoneally with Cre-dependent AAV8 viruses expressing GCaMP3.0 or mGCaMP3.0 or hM3(Gq-coupled) DREADD, and imaged as adults (≧8 weeks old).
Electrophysiology experiments on ex vivo skin-nerve preparations from adult heterozygous Mrgprb4-EGFPf reporter mice were performed as described in Woodbury, et al. J. Comp. Neurol. 436, 304-323 (2001). For calcium imaging, after a dorsal laminectomy the spinal column was stabilized and filled with imaging solution (see below for details). Imaging was performed using a two-photon laser-scanning microscope (Ultima, Prairie Inc.) using an Olympus 40×0.8 N.A. water immersion objective, at 128×128 pixel resolution with an acquisition rate of 8-12 frames per second. Mechanical stimuli were delivered using a custom-modified No. 5 sable paint brush or serrated forceps, in a manner electronically time-stamped to image acquisition, as may be seen in FIGS. 18A-18C and further discussed below. Stimuli were delivered to each mouse in a series of trials, separated by a few minutes; each trial consisted of one or more stimuli delivered typically at intervals of several seconds. Chemical stimuli were delivered to the spinal cord using a Pipetman pipette and to the periphery using a syringe pump. Calcium responses were analysed using custom software written in Matlab (see below for more details). For calculating ΔF/F [(Fav−F0)/F0], F0 is the average of the first ten frames of the recording period.
Mice 2 months or older were sedated by i.p. injection of a mix of ketamine (100 mg/kg), xylazine (15 mg/kg), acepromazine (2.5 mg/kg in 0.9% NaCl). During surgery, body temperature was maintained at 37° C. with a heating blanket.
A dorsal laminectomy was performed mostly at spinal level L2-L4 (but occasionally at L1-L3) as described in Johannssen, et al. J. Physiol. (Lond.) 588:3397-3402 (2010), but without removing the dura. The spinal column was stabilized using Narishige STS-A spinal clamps. In addition a head-holding adaptor from Kopf (923-B Mouse Gas Anaesthesia Head Holder) was used that has installed an anaesthesia/gas mask for positioning the mouse head. In this apparatus the gas is applied through a standard hose barb positioned above the nose on the mask. The inlet fills a large gas chamber around the snout, a second hose barb below the mask is provided for vacuuming off excess, expelled gasses. The animals were maintained under continuous anaesthesia for the duration of the imaging experiments with 1-2% isofluorane or with hourly injections of the above ketamine mix. A well was built around the exposed spinal cord using Gelseal (Amersham Biosciences Corp) and Kwik Sil Adhesive (WPI). Warm imaging solution (in mM: 130 NaCl, 3 KCl, 2.5 CaCl2, 0.6 6H2O.MgCl2, 10 HEPES without Na, 1.2 NaHCO3, 10 glucose, pH7.45 with NaOH) (37° C.) was repeatedly applied to prevent drying and maintain tissue integrity, and to allow the use of immersion objectives. During imaging the body temperature of the animals was maintained at 37° C. with a heating blanket and an air-therm heater (WPI) placed inside the microscope area.
Imaging experiments were performed under a two-photon laser-scanning microscope (Ultima, Prairie Instruments Inc.). Live images were acquired at 8-12 frames per second, at depths below the pia ranging from 100 to 250 μm, using an Olympus 40×0.8 N.A. water immersion objective, at 128×128 pixel resolution with a laser tuned to 940 nm wavelength, and emission filters 525/50 nm and 595/50 nm for green and red fluorescence, respectively. Laser power was adjusted to be 20-25 mW at the focal plane (maximally 35 mW), depending on the imaging depth and level of expression of GCaMP3.0. […]

SMILES: C[N+]1([O-])CCN(C2=Nc3cc(Cl)ccc3Nc3ccccc32)CC1 [CNO, Clozapine-N-oxide]
- calcium transients after application to the spinal cord [1]: able to induce calcium transients; also recorded: robust calcium transients
- calcium transients after application to the spinal cord [2]: no CNO responses
